This passage reports Kapp, Activity and MIC results from ChEMBL document CHEMBL3627603, “Helical peptide-polyamine and -polyether conjugates as synthetic ionophores” (Bioorg Med Chem, 2015).

For orientation: MIC means the smallest concentration in the dilution series that meets the test's criterion for growth inhibition. A lower MIC goes with inhibition by little substance.

The nature of data set [1]: Ionophoric activity across large unilamellar vesicles containing 95:5 egg yolk phosphatidylcholine and phosphatidylglycerol assessed as apparent first order rate constant for H+ transport at 1% of total concentration of lipids at 25 degC measured after 20 mins by HPTS-based fluorescence assay (reference value: 2 x 10^-4/s). The data set is classed as ADME.
The nature of data set [2]: Ionophoric activity across large unilamellar vesicles containing 95:5 egg yolk phosphatidylcholine and phosphatidylglycerol assessed as apparent first order rate constant for H+ transport at 1.5% of total concentration of lipids at 25 degC measured after 20 mins by HPTS-based fluorescence assay (reference value: 2 x 10^-4/s). The data set is classed as ADME.
The nature of data set [3]: Ionophoric activity across large unilamellar vesicles containing 95:5 egg yolk phosphatidylcholine and phosphatidylglycerol assessed as apparent first order rate constant for H+ transport at 2% of total concentration of lipids at 25 degC measured after 20 mins by HPTS-based fluorescence assay (reference value: 2 x 10^-4/s). The class given is ADME.
The nature of data set [4]: Ionophoric activity across large unilamellar vesicles containing 95:5 egg yolk phosphatidylcholine and phosphatidylglycerol assessed as apparent first order rate constant for H+ transport at 2.5% of total concentration of lipids at 25 degC measured after 20 mins by HPTS-based fluorescence assay (reference value: 2 x 10^-4/s). The data set is classed as ADME.
Data set [5] can be described thus: Ionophoric activity across large unilamellar vesicles containing 95:5 egg yolk phosphatidylcholine and phosphatidylglycerol assessed as apparent first order rate constant for H+ transport at 3% of total concentration of lipids at 25 degC measured after 20 mins by HPTS-based fluorescence assay (reference value: 2 x 10^-4/s). The data set is classed as ADME.
Data set [6] is described as follows: Induction of lysis of large unilamellar vesicles containing 95:5 egg yolk phosphatidylcholine and phosphatidylglycerol assessed as calcein release at 0.22 mM treated at 400 to 1600 secs by fluorometric analysis. The data set is classed as functional.
The next data set deals with Cryptococcus neoformans. The experiment in a line: Antifungal activity against Cryptococcus neoformans clinical isolate after 48 hrs by broth microdilution method. The data set is classed as functional. Background: Broth dilution looks for growth in wells or tubes with falling amounts of substance.
The subject of a further data set is Candida albicans. The experiment in a line: Antifungal activity against Candida albicans clinical isolate after 48 hrs by broth microdilution method. The class given is functional.
Data set [7] has as its system Staphylococcus aureus. The experiment in a line: Antibacterial activity against methicillin-resistant Staphylococcus aureus 16 clinical isolate after 24 hrs by broth microdilution method. The data set is classed as functional. The settings on record: Staphylococcus aureus, 16, 24 h.
Data set [8] relates to Staphylococcus aureus. The experiment in a line: Antibacterial activity against Staphylococcus aureus 34 clinical isolate after 24 hrs by broth microdilution method. The settings on record: Staphylococcus aureus, 34, 24 h. The data set is classed as functional.
The next data set has as its system Pseudomonas aeruginosa. The experiment in a line: Antibacterial activity against Pseudomonas aeruginosa ATCC 27853 after 24 hrs by broth microdilution method. The data set is classed as functional. The settings on record: ATCC 27853, 24 h.
For data set [9], the system named is Escherichia coli. The experiment in a line: Antibacterial activity against Escherichia coli ATCC 25922 after 24 hrs by broth microdilution method. The conditions noted are these: ATCC 25922, 24 h. The data set is classed as functional.
Data set [10] relates to Escherichia coli. Briefly: Induction of outer membrane permeabilization of Escherichia coli ML-35 pYC constitutively expressing cytoplasmic beta-galactosidase/periplasmic beta-lastamase assessed as CENTA hydrolysis at 64 uM by microplate reader analysis. The class given is functional, organism-based.
Data set [11] deals with Escherichia coli. Briefly: Induction of inner membrane permeabilization of Escherichia coli ML-35 pYC constitutively expressing cytoplasmic beta-galactosidase/periplasmic beta-lastamase assessed as Gal-ONp hydrolysis at 64 uM by microplate reader analysis. The data set is classed as functional, organism-based.
Data set [12] is described as follows: Ionophoric activity across large unilamellar vesicles containing 95:5 egg yolk phosphatidylcholine and phosphatidylglycerol assessed as apparent first order rate constant for Na+ transport at 1% of total concentration of lipids at 25 degC measured every 30 mins over 14 hrs by 23Na+ NMR analysis. The data set is classed as ADME.
The nature of data set [13]: Ionophoric activity across large unilamellar vesicles containing 95:5 egg yolk phosphatidylcholine and phosphatidylglycerol assessed as apparent first order rate constant for H+ transport at 0.5% of total concentration of lipids at 25 degC measured after 20 mins by HPTS-based fluorescence assay (reference value: 2 x 10^-4/s). The class given is ADME.
Data set [14] has as its system Escherichia coli. The experiment in a line: Induction of outer membrane permeabilization of Escherichia coli ML-35 pYC constitutively expressing cytoplasmic beta-galactosidase/periplasmic beta-lastamase assessed as CENTA hydrolysis at 256 uM by microplate reader analysis. The class given is functional, organism-based.
The test system of data set [15] is Escherichia coli. The experiment in a line: Induction of inner membrane permeabilization of Escherichia coli ML-35 pYC constitutively expressing cytoplasmic beta-galactosidase/periplasmic beta-lastamase assessed as Gal-ONp hydrolysis at 256 uM by microplate reader analysis. The class given is functional, organism-based.
Data set [16] in a line: Ionophoric activity across large unilamellar vesicles containing 95:5 egg yolk phosphatidylcholine and phosphatidylglycerol assessed as apparent first order rate constant for Na+ transport at 0.2% of total concentration of lipids at 25 degC measured every 30 mins over 14 hrs by 23Na+ NMR analysis. The data set is classed as ADME.
Data set [17] is described as follows: Ionophoric activity across large unilamellar vesicles containing 95:5 egg yolk phosphatidylcholine and phosphatidylglycerol assessed as apparent first order rate constant for Na+ transport at 0.5% of total concentration of lipids at 25 degC measured every 30 mins over 14 hrs by 23Na+ NMR analysis. The class given is ADME.
The nature of data set [18]: Ionophoric activity across large unilamellar vesicles containing 95:5 egg yolk phosphatidylcholine and phosphatidylglycerol assessed as apparent first order rate constant for Na+ transport at 1.5% of total concentration of lipids at 25 degC measured every 30 mins over 14 hrs by 23Na+ NMR analysis. The data set is classed as ADME.
A short description of data set [19]: Ionophoric activity across large unilamellar vesicles containing 95:5 egg yolk phosphatidylcholine and phosphatidylglycerol assessed as apparent first order rate constant for Na+ transport at 2% of total concentration of lipids at 25 degC measured every 30 mins over 14 hrs by 23Na+ NMR analysis. The data set is classed as ADME.
Data set [20] is described as follows: Ionophoric activity across large unilamellar vesicles containing 95:5 egg yolk phosphatidylcholine and phosphatidylglycerol assessed as apparent first order rate constant for Na+ transport at 3% of total concentration of lipids at 25 degC measured every 30 mins over 14 hrs by 23Na+ NMR analysis. The class given is ADME.

Each structure is given as a SMILES string. In brackets after ≈: the same amount, converted by molar mass. Activity calls are given as the source filed them. Starred links: 1 amine or outer side, 2 acyl side, 3 side chain; linkers in the order of their positions; H or OH if unused. Non-standard residues stand in square brackets, D forms with d. Residues, ends and D or L forms follow the SMILES beside them. *: point of attachment. HN(CH2CH2O)5CH2CH2NH = C(COCCOCCOCCOCCOCCN[*:2])N[*:1]; X1 = O=C(c1ccc(OP(=O)(O)O)cc1)*; Spermine = NCCCNCCCCNCCCN*; Aib = CC(C)(N)C(=O)O

On to `CC(C)(NC(=O)c1ccc(OP(=O)(O)O)cc1)C(=O)NC(C)(C)C(=O)NC(C)(C)C(=O)NC(C)(C)C(=O)NC(C)(C)C(=O)NC(C)(C)C(=O)NC(C)(C)C(=O)NC(C)(C)C(=O)NCCCNCCCCNCCCN` (X1-[Aib][Aib][Aib][Aib][Aib][Aib][Aib][Aib]-Spermine), for which the Kapp worked out at 5.24 ×10⁻³ /s in [1]; 1.73 ×10⁻² /s in data set [2]; 1.98 ×10⁻² /s in data set [3]; 3.62 ×10⁻² /s in data set [4]; 6.77 ×10⁻² /s in data set [5]; 4.08 ×10⁻³ /s in data set [13]. The outcome in data set [6] was inactive. Moreover, the MIC is 16 µM (≈ 17.3 µg/mL) with Cryptococcus neoformans; 32 µM (≈ 34.7 µg/mL) against Candida albicans; 32 µM (≈ 34.7 µg/mL) in the data set on Staphylococcus aureus [7]; 16 µM (≈ 17.3 µg/mL) against Staphylococcus aureus [8]; 64 µM (≈ 69.3 µg/mL) with Pseudomonas aeruginosa; 32 µM (≈ 34.7 µg/mL) with Escherichia coli [9]. The result with Escherichia coli [10] and with Escherichia coli [11] was Active. Also, the Activity entry in data set [12] is given as “Not Active”.
With `CC(C)(NC(=O)c1ccc(OP(=O)(O)O)cc1)C(=O)NC(C)(C)C(=O)NC(C)(C)C(=O)NC(C)(C)C(=O)NC(C)(C)C(=O)NC(C)(C)C(=O)NC(C)(C)C(=O)NC(C)(C)C(=O)NCCOCCOCCOCCOCCOCCN` (X1-[Aib][Aib][Aib][Aib][Aib][Aib][Aib][Aib]-{HN(CH2CH2O)5CH2CH2NH}), the Kapp in data set [1] worked out at 7.71 ×10⁻³ /s; in data set [2] it was 1.78 ×10⁻² /s; in [3] it was 2.59 ×10⁻² /s; in [4], 4.89 ×10⁻² /s; in data set [16] it was 0.0017 min⁻¹; in data set [17], 0.0037 min⁻¹. Moreover, the Kapp in [12] was 0.0063 min⁻¹; in [18] it was 0.0078 min⁻¹; in data set [19], 0.0102 min⁻¹; in [20] it was 0.015 min⁻¹; in data set [13], 4.96 ×10⁻³ /s. For the same molecule, the outcome (in data set [6]; in the data set on Escherichia coli [14]; in the data set on Escherichia coli [15]) was inactive. Also, the MIC against Cryptococcus neoformans, against Candida albicans, against Staphylococcus aureus [7], in the data set on Staphylococcus aureus [8], in the data set with Pseudomonas aeruginosa and in the data set with Escherichia coli [9] was over 128 µM in each case.
Regarding `C[C@@H]1[C@H](O)[C@@H](C)/C=C/C=C/C=C/C=C/C=C/C=C/C=C/[C@H](O[C@@H]2O[C@H](C)[C@@H](O)[C@H](N)[C@@H]2O)C[C@@H]2O[C@](O)(C[C@@H](O)C[C@@H](O)[C@H](O)CC[C@@H](O)C[C@@H](O)CC(=O)O[C@H]1C)C[C@H](O)[C@H]2C(=O)O` [AMPHOTERICIN B], the outcome in data set [1] and in data set [12] was Active.
As for `CC(C)[C@@H](CC[C@@H](C)[C@H]1CC[C@H]2[C@@H]3[C@H](O)C[C@H]4C[C@@H](NCCCNCCCCN)CC[C@]4(C)[C@H]3CC[C@]12C)OS(=O)(=O)O` [SQUALAMINE], the MIC with Candida albicans amounted to 4 µM (≈ 2.51 µg/mL); in the data set with Staphylococcus aureus [8] it was 1 µM (≈ 0.628 µg/mL); against Pseudomonas aeruginosa it was 4 µM (≈ 2.51 µg/mL); in the data set on Escherichia coli [9] it was 1 µM (≈ 0.628 µg/mL).
